Assay results published in patent publication US10265328B2, “C-19 steroids for specific therapeutic uses” (Procima GmbH, priority 2007, dated 2019).
Entries after “also recorded” stand apart in the source; their conditions may differ.

Tests used:
[1] = target: T1, aromatase (Homo sapiens, UniProt P11511); experiment: aromatization of the compound
T1 sequence (P11511 1-503): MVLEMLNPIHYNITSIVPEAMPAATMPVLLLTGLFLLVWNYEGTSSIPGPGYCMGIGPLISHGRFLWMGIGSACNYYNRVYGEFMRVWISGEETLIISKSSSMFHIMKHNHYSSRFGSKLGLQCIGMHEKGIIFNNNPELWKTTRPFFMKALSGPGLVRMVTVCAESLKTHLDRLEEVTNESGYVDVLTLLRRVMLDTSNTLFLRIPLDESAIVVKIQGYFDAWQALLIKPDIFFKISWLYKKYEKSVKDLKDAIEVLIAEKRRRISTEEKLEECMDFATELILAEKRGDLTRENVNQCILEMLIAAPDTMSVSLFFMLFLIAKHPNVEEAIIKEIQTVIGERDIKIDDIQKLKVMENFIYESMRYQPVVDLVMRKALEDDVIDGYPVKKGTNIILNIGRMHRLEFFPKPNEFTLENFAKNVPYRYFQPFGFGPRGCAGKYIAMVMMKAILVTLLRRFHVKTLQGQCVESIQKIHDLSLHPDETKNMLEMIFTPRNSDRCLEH

[2] = system: skin; experiment: topical application of a 4-OHT preparation to the skin over cellulite predilection areas; assay type: in vivo
Description: Not only in theory but also in practice the compounds of the present invention and in particular 4-OHT and its related analogous compounds are the ideal anabolic substances. […] This can be deduced from topical applications to the skin.
The border between the two layers is made up of collagen fibres. Strengthening this border by increasing its collagen content by stimulating the fibroblasts to produce more collagen leads to a marked improvement of the appearance of cellulite.
A topical formulation containing a compound according to the present invention such as 4-OHT or an analogous compound can increase the collagen content of the skin via stimulation of the fibroblasts. […] It is reasonable to assume that 4-OHT has solely anabolic effects. […] Apparently is 4-OHT unable to exert any androgenic effects such as hair growth or pimples.

[3] = target: T2, androgen receptor (AR) (Homo sapiens, UniProt P10275); experiment: binding affinity to the androgen receptor compared with DHT
T2 sequence (P10275 1-920): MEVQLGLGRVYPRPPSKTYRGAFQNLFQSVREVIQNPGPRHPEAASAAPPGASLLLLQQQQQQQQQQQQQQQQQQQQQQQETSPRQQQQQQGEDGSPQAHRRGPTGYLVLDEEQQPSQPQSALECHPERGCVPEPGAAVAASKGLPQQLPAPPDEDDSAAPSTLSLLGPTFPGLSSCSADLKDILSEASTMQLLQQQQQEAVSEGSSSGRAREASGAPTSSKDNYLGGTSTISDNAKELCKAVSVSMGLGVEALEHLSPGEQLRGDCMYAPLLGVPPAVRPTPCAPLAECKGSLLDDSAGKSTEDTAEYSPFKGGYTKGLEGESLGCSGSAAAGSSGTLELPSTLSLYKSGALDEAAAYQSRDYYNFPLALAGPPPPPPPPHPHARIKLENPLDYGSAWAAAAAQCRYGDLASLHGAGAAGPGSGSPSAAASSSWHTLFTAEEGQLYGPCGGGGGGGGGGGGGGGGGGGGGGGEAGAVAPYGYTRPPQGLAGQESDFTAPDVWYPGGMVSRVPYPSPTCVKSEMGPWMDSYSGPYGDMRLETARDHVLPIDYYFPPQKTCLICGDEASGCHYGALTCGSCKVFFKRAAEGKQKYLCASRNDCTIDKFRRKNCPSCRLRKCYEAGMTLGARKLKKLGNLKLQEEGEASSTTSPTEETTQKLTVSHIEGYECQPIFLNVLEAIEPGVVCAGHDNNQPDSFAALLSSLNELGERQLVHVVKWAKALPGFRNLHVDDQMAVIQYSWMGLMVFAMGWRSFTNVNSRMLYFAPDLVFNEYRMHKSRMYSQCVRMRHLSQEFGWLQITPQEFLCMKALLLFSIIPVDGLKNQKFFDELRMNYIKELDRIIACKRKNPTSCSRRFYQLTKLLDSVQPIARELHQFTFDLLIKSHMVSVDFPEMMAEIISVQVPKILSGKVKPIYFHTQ
Protocol: The compounds used according to the present invention preferably have a binding affinity to the androgen receptor (AR) higher than DHT; more preferably the binding affinity is high by having affinity specific to AR in a range of IC50≤500 nM, preferably IC50≤100 nM and more preferably IC50≤50 nM, wherein IC50 is defined as the concentration of the compound required to reduce specific binding of a reference compound, 5α-dihydrotestosterone (DHT), by 50%. The IC50-values can be determined by known methods using radioactively labelled DHT as reference compound, for example by a standard dextran-coated charcoal adsorption method as described by Raynaud et al., J. Steroid Biochem. 6, 615-622 (1975), using 1 nM reference concentrations of radiolabeled [^3H]-DHT, or by similar IC50 determination methods described in the literature. Because the concentration of AR in the target cell is very low, typically in the nanomolar range approximately, differences in binding constants to the order contemplated in the present invention are significant.

[4] = system: breast cancer cells; experiment: growth of breast cancer cells in culture; assay type: cell-based; details: certain breast cancer cells in culture
Description: A further promising concept is based on a comparative evaluation between DHT and the compounds of the present invention. […] This effect may readily hold also true for hormone independent cancer.

[5] = system: 5α-reductase; experiment: 5α-reduction of the compound
[6] = system: variant of the human prostate cancer cell line LNCaP; details: cited from earlier work
[7] = system: prostate cancer; details: 5 mg/day for 7 years vs placebo, men over 55 years, PSA less than 3.0 ng/ml; cited from earlier work
[8] = topical treatment over predilection areas of cellulite, within four weeks

## C[C@]12CC[C@H]3[C@@H](CCC4=C(O)C(=O)CC[C@@]43C)[C@@H]1CC[C@@H]2O [4-OHT, 4,17β-dihydroxyandrost-4-en-3-one]
[1]
  aromatization: escapes aromatization
[2]; after application to the skin
  androgenic effect on the skin (hair growth, pimples): no androgenic effect whatsoever could be observed
[2]; topical application to the skin
  concentration of collagen fibres in the skin: anabolically increases the concentration of collagen fibres; also recorded: drastic augmentation of collagen fibres
[2]; topical formulation, collagen content of the skin
  topical formulation compared with 4-OHA: superior than 4-OHA
[2]; [8]
  adipocytes entrapped in the mesh of collagen fibres: marked diminution and shrinkage of the adipocytes
  solidification of the skin: considerable solidification of the skin
[3]
  binding affinity to the AR relative to DHT: higher affinity to the AR than DHT
[4]
  growth of breast cancer cells in culture: even more effective
[5]
  5α-reduction: escapes aromatization or 5α-reduction

## C[C@]12CCC(=O)C[C@@H]1CC[C@@H]1[C@@H]2CC[C@]2(C)[C@@H](O)CC[C@@H]12 [DHT, dihydrotestosterone, reference compound]
[6]
  proliferation of LNCaP variant: inhibits the proliferation
[4]
  growth of breast cancer cells in culture: able to abolish the growth

## CC(C)(C)NC(=O)[C@H]1CC[C@H]2[C@@H]3CC[C@H]4NC(=O)C=C[C@]4(C)[C@H]3CC[C@]12C [finasteride]
[7]
  reduction of prostate cancers in the treatment arm: 25%
